In patent publication US20220273643A1, “METHOD OF TREATING KRAS-ASSOCIATED CANCERS” (THE REGENTS OF THE UNIVERSITY OF MICHIGAN, priority 2019, published 2022):

Experiments:
[1] = liver microsomal stability; type: in vitro ADME; conditions: compared to two other structurally close compounds
solubility in water = type: physicochemical; conditions: pH 3.5
bioavailability = type: in vivo; conditions: systemic injection and oral administration
EGFR [2] = target: T1, EGFR (Homo sapiens, UniProt P00533); experiment: EGFR degradation; type: cell-based; conditions: instead of inhibiting the activity
T1 construct: endogenous in cells; host or cells: HCT-116, Panc1 (inferred; the sentence holding the result names no cells)

EGFR [3] = target: T1, EGFR; experiment: EGF-induced EGFR dimerization; type: cell-based
purified EGFR = purified EGFR (Homo sapiens, UniProt P00533); experiment: direct binding to purified EGFR
[4] = system: EGFR-driven osimertinib resistant cell lines; experiment: activity in osimertinib resistant cell lines; type: cell-based
[5] = system: cetuximab-resistant cell-lines; experiment: IC50 against cetuximab-resistant cell-lines; type: cell-based; conditions: cetuximab-resistant cell-lines expressing mutant KRAS
[6] = system: immortalized cells of non-cancer origin; experiment: IC50 in immortalized cells of non-cancer origin; type: cell-based
UMSCC74B = type: in vivo
Procedure: FIG. 1 depicts the effect of DGD1202 in mutant KRAS (and EGFR co-driven) head and neck (UMSCC74B) tumor model.
Tumor-bearing mice were treated with DGD1202 via oral gavage in 30 mg/kg dose biweekly for one week. This dose was selected based on its single-dose PK profile.

HCT-116 [7] = experiment: clonogenic survival assay HCT-116; type: cell-based; conditions: KRAS G13D driven cetuximab-resistant colorectal cell-line; FIG. 2
Procedure: A study was conducted to evaluate the activity of DGD1202 in a KRAS G13D driven cetuximab-resistant colorectal cell-line (HCT-116) using clonogenic survival assays (FIG. 2) and in a pancreatic cancer cell line (Panc1) that contains KRAS G12D mutation (FIG. 3B).
More specifically, cells were plated at clonal density in 60 or 100 mm culture dishes in triplicate one day before treatment with a range of concentrations (e.g., 0-10 micro M). Eight to twelve days later, cells were fixed with acetic acid/methanol (1:7, v/v), stained with crystal violet (0.5%, w/v), and counted using a stereomicroscope. Drug cytotoxicity (surviving drug-treated cells) was measured and normalized to the survival of the untreated control cells.

HCT-116 [8] = experiment: immunoblotting HCT-116; type: cell-based; conditions: preliminary data
Procedure: (§1) FIG. 3 depicts the effect of DGD1202 on EGFR, KRAS and downstream signaling. (A). HCT-116 (colorectal cancer) cells were treated with DGD1202 for 5 h or 15 h, and whole cell lysates were probed with listed antibodies. (B). Evaluation of DGD1202 effects against the KRAS G12D driven pancreatic cell line (Panc1) tumor model; effect of treatment on the steady-state level of EGFR and mtKRAS was determined by immunoblotting; and GAPDH expression was assessed as a loading control.
(§2) The effect of DGD1202 on EGFR, ERK and AKT was also evaluated by immunoblotting. The preliminary data for DGD1202 in mutant KRAS driven HCT-116 (CRC) and Panc1 (Pancreas) cell lines are shown in FIG. 3A and FIG. 3B, respectively.
(§3) Cells were plated in 60-mm dishes at a density of 3×10^5 cells per dishes and incubated overnight or to 70% confluence. The cells were treated with the vehicle (DMSO) or DGD1202 and then were harvested at various time points. The pellets were washed twice with ice-cold PBS and re-suspended in lysis buffer for 30 min. After sonication, particulate material was removed by centrifugation at 13,000 rpm for 10 min at 4° C. […] After three additional washes in Tris-buffered saline, bound antibody was detected by enhanced chemiluminescence plus reagent. For quantification of relative protein levels, immunoblot films were scanned and analyzed using Image J 1.32j software. […]

Panc1 = experiment: immunoblotting Panc1; type: cell-based; conditions: Panc1, KRAS G12D specific antibody; preliminary data
Procedure: as §1, §2, §3

[9] = system: PanIn (pancreatic intraepithelial neoplasia); experiment: KRAS G12D driven pancreatic tumor model (KC mice); type: in vivo; conditions: 30 mg/kg oral gavage daily for 5 weeks, scored at week 11
Procedure: A study was conducted to evaluate the efficacy of DGD1202 in KRAS G12D driven pancreatic tumor model.
More specifically, 6-week old KC mice were treated with DGD1202 via oral gavage (30 mg/kg body weight, daily) for 5 weeks.

NCI-H1975-AZR = NCI-H1975-AZR (osimertinib resistant) xenograft; type: in vivo; conditions: SCID mice, 75 mg/kg oral gavage daily for two weeks
Procedure: FIG. 5 depicts the effect of DGD1202 on osimertinib resistant, NCI-H1975 lung cancer xenografts. (A). SCID mice bearing NCI-H1975 osimertinib resistant xenografts were treated with DGD1202 (75 mg/kg, daily, PO). The arrow marks the initiation of treatment with DGD1202. Change in tumor volume is plotted. (B). The effect of DGD1202 treatment on EGFR was assessed in tumors harvested 3 days post DGD1202 treatment.
A study was conducted to evaluate the efficacy of DGD1202 in mutant EGFR driven lung cancer model (FIG. 5).
Briefly, SCID mice bearing locally advanced NCI-H1975-AZR (osimertinib resistant) xenograft were treated daily with oral gavage of DGD1202 (75 mg/kg) for two weeks. Tumor volumes were measured using calipers at least three times a week. The effect of DGD1202 treatment on EGFR expression was determined by IHC staining 3-days after initiation of treatment.

lung lesion = experiment: genetically engineered KRAS-LSL-G12D mouse model of lung cancer; type: in vivo, mice; conditions: 30 mg/kg oral gavage Monday-Friday for 4 weeks; paired t-test p=0.0577
Procedure: The efficacy of DGD1202 treatment was assessed for KRAS-mutant lung tumor initiation and progression. A genetically engineered KRAS-LSL-G12D mouse model of lung cancer was used. This mouse carries a Lox-Stop-Lox (LSL) sequence followed by the KRAS G12D point mutation allele. Tumorigenesis was initiated by intra-nasal delivery of Adenovirus-Cre particles (1.5×10e^7 pfu) that transduced lung epithelial cells to express Cre recombinase that deletes the LSL cassette and allows the expression of the mutant KRAS oncogenic protein.
Eight weeks after viral delivery, the mice were treated either with vehicle or with DGD1202 on a Monday-Friday schedule for 4 weeks at a dose of 30 mg/kg oral gavage. When mice were 20-week old, the lungs were harvested and the H&E sections underwent morphological assessment. The histopathological spectrum of the lung lesions was noted and recorded in a double-blinded fashion for hyperplasia—alveolar or bronchial, the pattern of hyperplasia, adenoma, hyperplasia with focal atypia, bronchial dysplasia, adenomas, and atypical adenomatous hyperplasia. The percentage of lung lesion and total area of lung lesion from each lobe in every sample from both treatment group were scored and are shown in FIG. 6.

T1 sequence (P00533 25-1210): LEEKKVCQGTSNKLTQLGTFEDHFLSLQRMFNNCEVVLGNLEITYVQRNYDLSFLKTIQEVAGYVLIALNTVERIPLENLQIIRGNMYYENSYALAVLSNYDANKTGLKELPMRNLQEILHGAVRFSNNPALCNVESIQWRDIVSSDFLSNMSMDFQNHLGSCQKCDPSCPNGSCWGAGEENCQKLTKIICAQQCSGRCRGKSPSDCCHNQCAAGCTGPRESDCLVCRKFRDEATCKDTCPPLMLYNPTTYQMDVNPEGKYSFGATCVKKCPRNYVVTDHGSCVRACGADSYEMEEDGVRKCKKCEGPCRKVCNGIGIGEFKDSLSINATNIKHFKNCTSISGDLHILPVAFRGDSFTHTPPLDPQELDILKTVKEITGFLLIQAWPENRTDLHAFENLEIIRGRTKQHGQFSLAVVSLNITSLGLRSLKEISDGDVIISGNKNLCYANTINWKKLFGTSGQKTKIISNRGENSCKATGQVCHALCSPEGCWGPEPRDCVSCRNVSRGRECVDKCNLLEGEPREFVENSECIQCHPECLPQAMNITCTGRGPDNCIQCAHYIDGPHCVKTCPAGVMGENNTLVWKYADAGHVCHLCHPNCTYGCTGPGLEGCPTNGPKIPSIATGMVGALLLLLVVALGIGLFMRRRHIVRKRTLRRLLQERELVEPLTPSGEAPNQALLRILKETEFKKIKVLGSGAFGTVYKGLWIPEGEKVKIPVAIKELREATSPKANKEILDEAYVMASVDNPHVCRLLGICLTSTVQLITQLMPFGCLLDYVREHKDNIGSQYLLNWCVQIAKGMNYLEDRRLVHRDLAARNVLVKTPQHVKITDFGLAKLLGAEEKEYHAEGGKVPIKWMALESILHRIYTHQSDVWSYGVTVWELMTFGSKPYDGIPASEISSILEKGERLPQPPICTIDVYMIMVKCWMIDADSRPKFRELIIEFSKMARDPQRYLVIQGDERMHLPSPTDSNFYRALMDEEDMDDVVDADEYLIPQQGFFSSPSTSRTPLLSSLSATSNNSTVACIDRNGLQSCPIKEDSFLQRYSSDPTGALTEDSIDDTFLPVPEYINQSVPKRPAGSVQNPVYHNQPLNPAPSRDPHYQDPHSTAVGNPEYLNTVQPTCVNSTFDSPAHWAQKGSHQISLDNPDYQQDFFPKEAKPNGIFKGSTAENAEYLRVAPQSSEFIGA
Chain of purified EGFR (P00533 25-1210): as above

Compound: CN1CCC2(CC1)N=C(SCC(=O)Nc1cnc3ccccc3c1)C(c1ccc(Br)cc1)=N2 [DGD1202, 2-((3-(4-bromophenyl)-8-methyl-1,4,8-triazaspiro[4.5]deca-1,3-dien-2-yl)thio)-N-(quinolin-3-yl)acetamide]
- liver microsomal stability [1]: much better liver microsomal stability
- solubility in water (solubility in water): soluble in water at pH 3.5
- bioavailability (bioavailability): bioavailable
- EGFR degradation (EGFR [2]): degrades EGFR
- EGF-induced EGFR dimerization (EGFR [3]): blocks EGF-induced EGFR dimerization
- binding to purified EGFR (purified EGFR): directly binds to purified EGFR
- activity in EGFR-driven osimertinib resistant cell lines [4]: selectively active
- IC50 [5]: 500 to 2200 nM
- IC50 [6]: > 20000 nM
- safety of dose and regimen (UMSCC74B; 30 mg/kg oral gavage, tumor-bearing mice): safe
- tumor growth (UMSCC74B; UMSCC74B tumor-bearing mice, DGD1202 30 mg/kg oral gavage, cetuximab 100 mg/kg (FIG. 1), P<0.001 for DGD1202): significant tumor growth suppression
- clonogenic survival (HCT-116 [7]): effective
- EGFR and KRAS levels by immunoblotting (HCT-116 [8]; HCT116, PAN-RAS antibody, 5 h or 15 h): affected both EGFR and mtKRAS
- downstream signaling pAKT and pERK by immunoblotting (HCT-116 [8]; HCT-116): affected downstream signaling in pAKT and pERK
- EGFR and mtKRAS levels by immunoblotting (Panc1): affected both EGFR and mtKRAS (Panc1) levels
- effect on PanIn (pancreatic intraepithelial neoplasia) [9]: significantly reduced propensity for developing PanIn
- efficacy on tumor volume (NCI-H1975-AZR): exhibited efficacy
- percentage of lung lesion and total area of lung lesion vs vehicle (lung lesion): tend towards significance
